Where two headings read alike, the source gives them in different places. Numbered stars: 1 amine (or outer) side, 2 acyl side, 3 side chain; on linkers, the order of the positions; unused ones are H or OH. Square brackets hold non-standard residues; d marks the D form. Peptide text beside a SMILES is read from it. * marks the point of attachment. Trp(βS-Me,7-OMe) = COc1cccc2c([C@H](C)[C@H](N)C(=O)O)c[nH]c12; Ala(indazol-1-yl) = N[C@@H](Cn1ncc2ccccc21)C(=O)O; Trp(7-CN) = N#Cc1cccc2c(C[C@H](N)C(=O)O)c[nH]c12; Trp(7-Cl) = N[C@@H](Cc1c[nH]c2c(Cl)cccc12)C(=O)O; Phe(3-CONH2) = NC(=O)c1cccc(C[C@H](N)C(=O)O)c1; Phe(4-CONH2) = NC(=O)c1ccc(C[C@H](N)C(=O)O)cc1; Phe(4-COOH) = N[C@@H](Cc1ccc(C(=O)O)cc1)C(=O)O; 4Pal(3S-Me) = C[C@@H](c1ccncc1)[C@H](N)C(=O)O; X9 = CN(C)[C@@H]1C[C@H](C(=O)[*:2])N([*:1])C1; Pip(5R-OH) = O=C(O)[C@@H]1CC[C@@H](O)CN1; X1 = O=C([C@@H]1CC[C@H](N[*:1])C1)[*:2]; Pip(4-aza) = O=C(O)[C@@H]1CNCCN1; 4Pal = N[C@@H](Cc1ccncc1)C(=O)O; Abu(4-CN) = N#CCC[C@H](N)C(=O)O; NMeE = CN[C@@H](CCC(=O)O)C(=O)O; dHyp = O=C(O)[C@H]1C[C@H](O)CN1; Ahp(2) = CCCCC[C@H](N)C(=O)O; αMeS = C[C@](N)(CO)C(=O)O; Carboxymethyl = O=C(O)C*; Nle = CCCC[C@H](N)C(=O)O; Sar = CNCC(=O)O
Tests used:
[1] = target: T1, TNFα-induced NF-κB signal transduction pathway (TNFR1 signaling) in THP-1 cells (Homo sapiens, UniProt P19438); assay: THP-1 Lucia NF-κB reporter cell assay, inhibition of TNFα-induced NF-κB signaling; format: cell-based; details: THP-1 NF-κB Lucia reporter cells, 10 ng/mL TNFα, 16-18 h, secreted luciferase; read-out: THP-1 IC50
T1 sequence (P19438 30-455): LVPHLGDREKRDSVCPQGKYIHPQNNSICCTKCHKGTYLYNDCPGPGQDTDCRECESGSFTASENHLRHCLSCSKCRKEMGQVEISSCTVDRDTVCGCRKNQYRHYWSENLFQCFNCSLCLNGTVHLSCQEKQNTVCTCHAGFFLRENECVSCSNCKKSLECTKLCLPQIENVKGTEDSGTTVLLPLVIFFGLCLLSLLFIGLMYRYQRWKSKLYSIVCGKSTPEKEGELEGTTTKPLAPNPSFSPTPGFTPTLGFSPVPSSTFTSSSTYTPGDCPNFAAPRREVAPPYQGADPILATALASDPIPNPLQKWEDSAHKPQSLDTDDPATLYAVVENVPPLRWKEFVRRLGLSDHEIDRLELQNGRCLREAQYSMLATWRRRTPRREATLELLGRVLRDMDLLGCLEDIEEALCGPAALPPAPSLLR
Procedure, shortened: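 Read-out: secreted Lucia luciferase luminescence (QUANTI-Luc) from supernatant after 16-18 h, 37 °C, 10 ng/mL rhTNFα. Peptide pretreatment 1 h at 37 °C; 20,000 cells/well, selection antibiotics omitted. IC50 via 4-parameter logistic model against min/max controls.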

[2] = target: T2, human TNFR1 extracellular domain (ECD) protein (Homo sapiens, UniProt P19438); assay: SPR binding affinity to captured human TNFR1 ECD
T2 construct: HRV 3C protease cleavage site (C); 6His (C, cleaved yes); made in house; host or cells: Sf21 insect cells (baculovirus), secreted
T2 sequence (P19438 30-211): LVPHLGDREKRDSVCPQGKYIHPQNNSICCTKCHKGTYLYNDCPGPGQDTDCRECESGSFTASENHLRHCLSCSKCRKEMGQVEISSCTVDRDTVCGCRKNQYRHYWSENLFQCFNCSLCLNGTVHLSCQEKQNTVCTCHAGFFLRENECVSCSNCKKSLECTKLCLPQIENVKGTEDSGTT
Procedure, shortened: (§1)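 Insect-cell human receptor ECDs, enzymatically biotinylated, immobilized via streptavidin capture chip. Peptide binding and dissociation measured in RU in pH 7.4 HEPES buffer containing 2% DMSO; chip regenerated per analyte. Rate constants give affinity.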

human TNFR2 ECD protein = target: T3, human TNFR2 ECD protein (Homo sapiens, UniProt P20333); assay: SPR off-target binding (selectivity) to human TNFR2 ECD
T3 construct: HRV 3C protease cleavage site (C); 6His (C, cleaved yes); made in house; host or cells: Sf21 insect cells (baculovirus), secreted
T3 sequence (P20333 23-257): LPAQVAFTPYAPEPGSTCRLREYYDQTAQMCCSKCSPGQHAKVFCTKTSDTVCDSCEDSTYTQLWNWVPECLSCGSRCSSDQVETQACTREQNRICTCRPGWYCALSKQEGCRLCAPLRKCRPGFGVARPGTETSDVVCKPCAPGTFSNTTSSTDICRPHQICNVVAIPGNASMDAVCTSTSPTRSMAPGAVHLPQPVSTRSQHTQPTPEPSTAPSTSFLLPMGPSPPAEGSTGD
Procedure, shortened: as §1

| Structure (SMILES) | IC50 [1] [nM] | Kd [2] [nM] | Kd (human TNFR2 ECD protein) [nM] | Kd ([2]; biotinylated human TNFR1 ECD on streptavidin chip, from kon and koff, read-out: SPR hTNFR1 KD) [nM] | Kd (human TNFR2 ECD protein; biotinylated human TNFR2 ECD on streptavidin chip, read-out: SPR hTNFR2 KD) [nM] |
| --- | --- | --- | --- | --- | --- |
| CCCC[C@@H]1NC(=O)[C@@H]2CC[C@@H](C2)NC(=O)[C@H]([C@@H](C)c2c[nH]c3c(OC)cccc23)NC(=O)CN(C)C(=O)[C@H](Cc2ccc(O)cc2)NC(=O)[C@H](Cc2ccc(C(N)=O)cc2)NC(=O)[C@](C)(CO)NC(=O)[C@H](Cc2c[nH]c3c(Cl)cccc23)NC(=O)[C@H](Cc2ccncc2)NC(=O)[C@H](CC(N)=O)NC(=O)[C@H](CCC(=O)O)N(C)C(=O)[C@H](Cn2ncc3ccccc32)NC(=O)[C@@H]2CC[C@@H](O)CN2C(=O)[C@H](Cc2ccncc2)NC1=O [SEQ ID NO. 74] (cyclo([4Pal][Trp(7-Cl)][αMeS][Phe(4-CONH2)]Y[Sar][Trp(βS-Me,7-OMe)][X1][Nle][4Pal][Pip(5R-OH)][Ala(indazol-1-yl)][NMeE]N)) | 0.5 | 0.12 | > 1000 | – | – |
| CCCCC[C@@H]1NC(=O)[C@@H]2CC[C@@H](C2)NC(=O)[C@H]([C@@H](C)c2c[nH]c3c(OC)cccc23)NC(=O)CN(C)C(=O)[C@H](Cc2ccc(C(N)=O)cc2)NC(=O)[C@H](Cc2ccc(C(N)=O)cc2)NC(=O)[C@](C)(CO)NC(=O)[C@H](Cc2c[nH]c3c(C#N)cccc23)NC(=O)[C@H](Cc2ccc(C(=O)O)cc2)NC(=O)[C@H](CC(N)=O)NC(=O)[C@H]2C[C@H](O)CN2C(=O)[C@H](Cc2c[nH]c3ccccc23)NC(=O)[C@H](CCC#N)NC(=O)[C@H]([C@@H](C)c2ccncc2)NC1=O [SEQ ID NO. 79] (cyclo([Ahp(2)][4Pal(3S-Me)][Abu(4-CN)]W[dHyp]N[Phe(4-COOH)][Trp(7-CN)][αMeS][Phe(4-CONH2)][Phe(4-CONH2)][Sar][Trp(βS-Me,7-OMe)][X1])) | 1.3 | 0.05 | > 1000 | – | – |
| CCCC[C@@H]1NC(=O)[C@@H]2CC[C@@H](C2)NC(=O)[C@H]([C@@H](C)c2c[nH]c3c(OC)cccc23)NC(=O)CN(C)C(=O)[C@H](Cc2ccc(O)cc2)NC(=O)[C@H](Cc2ccc(OCC(=O)O)cc2)NC(=O)[C@](C)(CO)NC(=O)[C@H](Cc2c[nH]c3c(Cl)cccc23)NC(=O)[C@H](Cc2ccncc2)NC(=O)[C@H](CC(N)=O)NC(=O)[C@H](CCC(=O)O)N(C)C(=O)[C@H](Cc2c[nH]c3ccccc23)NC(=O)[C@@H]2CNCCN2C(=O)[C@H](Cc2ccncc2)NC1=O [SEQ ID NO. 80] (cyclo([4Pal][Trp(7-Cl)][αMeS]Y(Carboxymethyl)Y[Sar][Trp(βS-Me,7-OMe)][X1][Nle][4Pal][Pip(4-aza)]W[NMeE]N)) | 1.2 | 0.33 | > 1000 | – | – |
| CCCC[C@@H]1NC(=O)[C@@H]2CC[C@@H](C2)NC(=O)[C@H]([C@@H](C)c2c[nH]c3c(OC)cccc23)NC(=O)CN(C)C(=O)[C@H](Cc2ccc(C(=O)O)cc2)NC(=O)[C@H](Cc2ccc(C(N)=O)cc2)NC(=O)[C@](C)(CO)NC(=O)[C@H](Cc2c[nH]c3c(Cl)cccc23)NC(=O)[C@H](Cc2ccncc2)NC(=O)[C@H](CC(N)=O)NC(=O)[C@H]2C[C@H](O)CN2C(=O)[C@H](Cc2c[nH]c3ccccc23)NC(=O)[C@@H]2CNCCN2C(=O)[C@H](Cc2ccncc2)NC1=O [SEQ ID NO. 83] (cyclo([4Pal][Trp(7-Cl)][αMeS][Phe(4-CONH2)][Phe(4-COOH)][Sar][Trp(βS-Me,7-OMe)][X1][Nle][4Pal][Pip(4-aza)]W[dHyp]N)) | 0.6 | – | – | 0.09 | > 1000 |
| CCCCC[C@@H]1NC(=O)[C@@H]2CC[C@@H](C2)NC(=O)[C@H]([C@@H](C)c2c[nH]c3c(OC)cccc23)NC(=O)CN(C)C(=O)[C@H](Cc2cccc(C(N)=O)c2)NC(=O)[C@H](Cc2ccc(C(N)=O)cc2)NC(=O)[C@](C)(CO)NC(=O)[C@H](Cc2c[nH]c3c(C#N)cccc23)NC(=O)[C@H](Cc2ccc(C(=O)O)cc2)NC(=O)[C@H](CC(N)=O)NC(=O)[C@H]2C[C@@H](N(C)C)CN2C(=O)[C@H](Cc2c[nH]c3ccccc23)NC(=O)[C@@H]2CC[C@@H](O)CN2C(=O)[C@H](Cc2ccncc2)NC1=O [SEQ ID NO. 84] (cyclo([4Pal][Pip(5R-OH)]W[X9]N[Phe(4-COOH)][Trp(7-CN)][αMeS][Phe(4-CONH2)][Phe(3-CONH2)][Sar][Trp(βS-Me,7-OMe)][X1][Ahp(2)])) | 0.6 | 0.02 | > 1000 | – | – |
